Experimental data from patent US7897582B2, “Oligonucleotide compositions and methods for the modulation of the expression of B7 protein” (Isis Pharmaceuticals, Inc., priority 2003, dated 2011).
Strand notation (5' to 3'): a small letter for the sugar, then the base; units joined by * are phosphorothioate-linked, units joined directly phosphodiester-linked; [ ] holds rarer units or linkages, { } end groups; capitals alone tell only the bases. e = 2'-O-(2-methoxyethyl) (MOE); [5mC] = 5-methylcytosine; d = 2'-deoxy (DNA)

Legend:
Mouse B7-2 mRNA = Mouse B7-2 mRNA expression, screened as in Example 4; type: cell-based; set-up: % mRNA INHIBITION: concentration or dose not given beside the values; conditions: for % mRNA INHIBITION: screened as in Example 4; for % mRNA EXPRESSION: screened as in Example 4, basal = 100.0%
Procedure: For ribonuclease protection assays, cells were harvested 18 hours after completion of oligonucleotide treatment using a Totally RNA™ kit (Ambion, Austin, Tex.). The probes for the assay were generated from plasmids pcB7-2 (linearized by digestion with Bgl II) and pTRI-b-actin (Ambion Inc., Austin, Tex.). In vitro transcription of the linearized plasmid from the SP6 promoter was performed in the presence of α-^32P-UTP (800 Ci/mmole) yielding an antisense RNA complementary to the 3′ end of B7-2 (position 1044-1391). The probe was gel-purified after treatment with DNase I to remove DNA template. Ribonuclease protection assays were carried out using an RPA II™ kit (Ambion) according to the manufacturer's directions. Total RNA (5 μg) was hybridized overnight, at 42° C., with 10^5 cpm of the B7-2 probe or a control beta-actin probe. The hybridization reaction was then treated, at 37° C. for 30 minutes, with 0.4 units of RNase A and 2 units of RNase T1. Protected RNA was precipitated, resuspended in 10 μL of gel loading buffer and electrophoresed on a 6% acrylamide gel with 50% w/v urea at 20 W. The gel was then exposed and the lanes quantitated using a PhosphorImager (Molecular Dynamics, Sunnyvale, Calif.) essentially according to the manufacturer's instructions.
Oligonucleotides were screened as described in Example 4.

human B7-1 = assay: Cell surface expression of B7-1 in pcB7-1-transfected COS-7 cells by flow cytometry; type: cell-based; conditions: for % B7-1 EXPRESSION: human B7 cell surface expression, Table 16; for % Surface Inhibition / % Surface Expression: COS-7 cells, B7-1 cell surface; for % Surface Expression: basal = 100%
Procedure: The ability of oligonucleotides to inhibit B7-1 expression was evaluated by measuring the cell surface expression of B7-1 in transfected COS-7 cells by flow cytometry.
(§1) A T-175 flask was seeded at 75% confluency with COS-7 cells (ATCC accession No. CRL 1651). The plasmid pcB7-1 was introduced into cells by standard calcium phosphate transfection. Following a 4 hour transfection, the cells were trypsinized and seeded in 12-well dishes at 80% confluency. The cells were allowed to adhere to the plastic for 1 hour and were then washed with phosphate-buffered saline (PBS). OptiMEM™ (GIBCO-BRL, Gaithersburg, Md.) medium was added along with 15 μg/mL of Lipofectin™ (GIBCO-BRL, Gaithersburg, Md.) and oligonucleotide at the indicated concentrations. After four additional hours, the cells were washed with phosphate buffered saline (PBS) and incubated with fresh oligonucleotide at the same concentration in DMEM (Dulbecco et al., Virol., 1959, 8, 396; Smith et al., Virol., 1960, 12, 185) with 10% fetal calf sera (FCS).
(§2) In order to monitor the effects of oligonucleotides on cell surface expression of B7-1, treated COS-7 cells were harvested by brief trypsinization 24-48 hours after oligonucleotide treatment. The cells were washed with PBS, then resuspended in 100 μL of staining buffer (PBS, 0.2% BSA, 0.1% azide) with 5 μL conjugated anti-B7-1-antibody (i.e., anti-hCD80-FITC, Ancell, Bayport, Minn.; FITC: fluorescein isothiocyanate). The cells were stained for 30 minutes at 4° C., washed with PBS, resuspended in 300 μL containing 0.5% paraformaldehyde. Cells were harvested and the fluorescence profiles were determined using a flow cytometer.
(§3) B7 antisense oligonucleotides were tested for their effect on cell surface expression of both B7-1 and B7-2. Cell surface expression was measured as described in Example 1. Experiments were done for both human B7 and mouse B7.
The oligonucleotides were screened as described in Example 2 except that the concentration of oligonucleotide was varied as shown in Table 18.

human B7-2 = assay: Cell surface expression of B7-2 in transfected COS-7 cells by flow cytometry; type: cell-based; conditions: for % B7-2 EXPRESSION: human B7 cell surface expression, Table 16; for % Surface Inhibition / % Surface Expression: COS-7 cells, B7-2 cell surface; for % Surface Expression: basal = 100%
Procedure: as §1, §2
In an initial screen, the ability of hB7-2 oligonucleotides to inhibit B7-2 expression was evaluated by measuring the cell surface expression of B7-2 in transfected COS-7 cells by flow cytometry. The methods used were similar to those given in Example 2, with the exceptions that (1) COS-7 cells were transfected with the plasmids pbcB7-2 or BBG-58, a human ICAM-1 (CD54) expression vector (R&D Systems, Minneapolis, Minn.) introduced into cells by standard calcium phosphate transfection, (2) the oligonucleotides used were those described in Table 2, and (3) a conjugated anti-B7-2 antibody (i.e., anti-hCD86-FITC or anti-CD86-PE, PharMingen, San Diego, Calif.; PE: phycoerythrin) was used during flow cytometry.
as §3
The oligonucleotides were screened as described in Example 2 except that the concentration of oligonucleotide was varied as shown in Table 19.

Human B7-1 mRNA = Human B7-1 mRNA expression in COS-7 cells, screened as in Example 4; type: cell-based
hB7-2 mRNA = assay: Ribonuclease protection assay of hB7-2 mRNA in transfected COS-7 cells; type: cell-based, human
Outline: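 COS-7 cells transfected with hB7-2 were treated with antisense oligonucleotides at varied concentrations, mismatch controls included; RNA taken 18 h after treatment. 5 μg total RNA hybridised overnight at 42° C with 32P antisense probe (B7-2 positions 1044-1391) or beta-actin probe, RNase A/T1 digested, gel-resolved and quantified by phosphorimaging.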

18096 (antisense eG*eT*e[5mC]*eT*e[5mC]*dT*d[5mC]*dT*dG*dT*d[5mC]*dA*dG*d[5mC]*dG*eT*eT*eA*e[5mC]*eT) [compound 18096]
% mRNA INHIBITION (Mouse B7-2 mRNA): 67.7% | % mRNA EXPRESSION (Mouse B7-2 mRNA): 32.3%

18091 (antisense eG*eT*eG*eA*e[5mC]*d[5mC]*dT*dT*dG*d[5mC]*dT*dT*dA*dG*dA*e[5mC]*eG*eT*eG*e[5mC]) [compound 18091]
% mRNA INHIBITION (Mouse B7-2 mRNA): 62.9% | % mRNA EXPRESSION (Mouse B7-2 mRNA): 37.1%

22324 (eG*eG*e[5mC]*e[5mC]*eA*dT*dA*dT*dA*dT*dT*d[5mC]*dA*dT*dG*eT*e[5mC]*e[5mC]*e[5mC]*e[5mC]; antisense) [compound 22324]
% B7-1 EXPRESSION (human B7-1): 37% | % B7-2 EXPRESSION (human B7-2): 91% | % mRNA EXPRESSION (Human B7-1 mRNA; human B7-1 mRNA, Table 7): 46%

22320 (eT*eT*eG*eA*eG*dG*dT*dA*dT*dG*dG*dA*d[5mC]*dA*d[5mC]*eT*eT*eG*eG*eA; antisense) [compound 22320]
% B7-1 EXPRESSION (human B7-1): 37% | % B7-2 EXPRESSION (human B7-2): 86% | % mRNA EXPRESSION (Human B7-1 mRNA; human B7-1 mRNA, Table 7): 45%

22338 (antisense eG*e[5mC]*e[5mC]*eT*e[5mC]*dA*dT*dG*dA*dT*d[5mC]*d[5mC]*d[5mC]*d[5mC]*dA*e[5mC]*eG*eA*eT*e[5mC]) [compound 22338]
% Surface Inhibition (human B7-1; dose 10 nM): 22% | % Surface Expression (human B7-1; dose 10 nM): 78% | % Surface Inhibition (human B7-1; dose 30 nM): 35% | % Surface Expression (human B7-1; dose 30 nM): 65% | % Surface Inhibition (human B7-1; dose 100 nM): 50% | % Surface Expression (human B7-1; dose 100 nM): 50% | % Surface Inhibition (human B7-1; dose 300 nM): 60% | % Surface Expression (human B7-1; dose 300 nM): 40% | % B7-1 EXPRESSION (human B7-1): 22% | % B7-2 EXPRESSION (human B7-2): 96% | % mRNA EXPRESSION (Human B7-1 mRNA; 10 nM, COS-7, Table 8): 68% | % mRNA INHIBITION (Human B7-1 mRNA; 10 nM, COS-7, Table 8): 32% | % mRNA EXPRESSION (Human B7-1 mRNA; 30 nM, COS-7, Table 8): 60% | % mRNA INHIBITION (Human B7-1 mRNA; 30 nM, COS-7, Table 8): 40% | % mRNA EXPRESSION (Human B7-1 mRNA; 100 nM, COS-7, Table 8): 53% | % mRNA INHIBITION (Human B7-1 mRNA; 100 nM, COS-7, Table 8): 47% | % mRNA EXPRESSION (Human B7-1 mRNA; 300 nM, COS-7, Table 8): 41% | % mRNA INHIBITION (Human B7-1 mRNA; 300 nM, COS-7, Table 8): 59% | % mRNA EXPRESSION (Human B7-1 mRNA; human B7-1 mRNA, Table 7): 40%

22284 (eT*eG*e[5mC]*eG*eA*dG*d[5mC]*dT*d[5mC]*d[5mC]*d[5mC]*d[5mC]*dG*dT*dA*e[5mC]*e[5mC]*eT*e[5mC]*e[5mC]; antisense) [compound 22284]
% mRNA INHIBITION (hB7-2 mRNA; COS-7 cells, B7-2 mRNA, oligonucleotide dose 10 nM): 8% | % mRNA EXPRESSION (hB7-2 mRNA; COS-7 cells, B7-2 mRNA, oligonucleotide dose 10 nM, basal = 100%): 92% | % mRNA INHIBITION (hB7-2 mRNA; COS-7 cells, B7-2 mRNA, oligonucleotide dose 30 nM): 28% | % mRNA EXPRESSION (hB7-2 mRNA; COS-7 cells, B7-2 mRNA, oligonucleotide dose 30 nM, basal = 100%): 72% | % mRNA INHIBITION (hB7-2 mRNA; COS-7 cells, B7-2 mRNA, oligonucleotide dose 100 nM): 41% | % mRNA EXPRESSION (hB7-2 mRNA; COS-7 cells, B7-2 mRNA, oligonucleotide dose 100 nM, basal = 100%): 59% | % mRNA INHIBITION (hB7-2 mRNA; COS-7 cells, B7-2 mRNA, oligonucleotide dose 300 nM): 52% | % mRNA EXPRESSION (hB7-2 mRNA; COS-7 cells, B7-2 mRNA, oligonucleotide dose 300 nM, basal = 100%): 48% | % mRNA EXPRESSION (hB7-2 mRNA; human B7-2 mRNA, Table 12): 30% | % B7-1 EXPRESSION (human B7-1): 88% | % Surface Inhibition (human B7-2; dose 10 nM): 37% | % Surface Expression (human B7-2; dose 10 nM): 63% | % Surface Inhibition (human B7-2; dose 30 nM): 40% | % Surface Expression (human B7-2; dose 30 nM): 60% | % Surface Inhibition (human B7-2; dose 100 nM): 63% | % Surface Expression (human B7-2; dose 100 nM): 37% | % Surface Inhibition (human B7-2; dose 300 nM): 85% | % Surface Expression (human B7-2; dose 300 nM): 15% | % B7-2 EXPRESSION (human B7-2): 32%
